# Experimental data from patent US6780994B2, “Phthalimido arylpiperazines useful in the treatment of benign prostatic hyperplasia” (Ortho-McNeil Pharmaceutical, Inc., priority 1998, dated 2004).
# pIC50: −log10 of the molar value.
# Experiments:
# α1a-AR = biological target: T1, α1a-AR (Homo sapiens, UniProt P35348); assay: radioligand ([125I]-HEAT) receptor binding assay, COS cell membranes expressing cloned receptor; conditions: [125I]-HEAT 50 pM, 1 hour room temperature
# T1 construct: expressed in transfected cells; host or cells: COS cells, pcDNA3 vector, transient DEAE-dextran transfection
# T1 sequence (P35348 1-466): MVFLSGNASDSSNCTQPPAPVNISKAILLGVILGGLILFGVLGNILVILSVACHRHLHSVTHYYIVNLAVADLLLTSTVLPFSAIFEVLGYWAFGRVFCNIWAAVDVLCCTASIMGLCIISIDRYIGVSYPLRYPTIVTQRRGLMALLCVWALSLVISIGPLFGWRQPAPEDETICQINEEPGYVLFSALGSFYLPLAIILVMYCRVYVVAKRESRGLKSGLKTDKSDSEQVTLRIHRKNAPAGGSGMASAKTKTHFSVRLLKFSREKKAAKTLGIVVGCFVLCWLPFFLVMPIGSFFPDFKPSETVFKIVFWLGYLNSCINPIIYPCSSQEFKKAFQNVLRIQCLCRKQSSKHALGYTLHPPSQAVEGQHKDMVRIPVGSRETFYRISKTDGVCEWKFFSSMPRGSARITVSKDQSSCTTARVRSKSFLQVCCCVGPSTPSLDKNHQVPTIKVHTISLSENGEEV
# Description: The first assay tested the ability of compounds of Formula I to bind to membrane bound receptors α1a-AR, α1b-AR and α1d-AR.
# The DNA sequences of the three cloned human α1-AR subtypes have been published. […] We used published DNA sequence information to design primers for use in RT-PCR amplification of each subtype to obtain cloned cDNAs. Human poly A+ RNA was obtained from commercially available sources and included hippocampus and prostate samples, sources which have been cited in the literature. For the primary screen a radioligand binding assay was used which employed membrane preparations from cells expressing the individual cloned receptor cDNAs. […] Each α1 receptor subtype was cloned from poly A+ RNA by the standard method of reverse transcription-polymerase chain reaction (RT-PCR). The following sources of polyA+ RNA were used for the cloning of the α1 receptor subtypes: α1a-AR, human hippocampus and prostate, α1b-AR, human hippocampus, α1d-AR, human hippocampus. The resulting cDNAs were cloned into the pcDNA3 mammalian expression vector (Invitrogen Corp., San Diego Calif.). Each DNA was sequenced for verification and to detect any possible mutations introduced during the amplification process. Any deviation in sequence from the published consensus for each receptor subtype was corrected by site-directed mutagenesis.
# The three α1-AR subtypes (a, b, d) were transfected into COS cells using a standard DEAE-dextran procedure with a chloroquine shock. […] Approximately 72 hours post-transfection, the cells were harvested and COS membranes were prepared. Transfected COS cells from 25 plates (100 mm) were scraped and suspended in 15 mL of TE buffer (50 mM Tris-HCl, 5 mM EDTA, pH 7.4). The suspension was disrupted with a homogenizer. It was then centrifuged at 1000× g for 10 minutes at 4° C. […] The pellet was resuspended in 5 mL TNE buffer (50 mM Tris-HCl, 5 mM EDTA, 150 mM NaCl, pH 7.4). The resulting membrane preparation was aliquoted and stored at −70° C. The protein concentration was determined following membrane solubilization with TritonX-100.
# The ability of each compound to bind to each of the α1-AR subtypes was assessed in a receptor binding assay. […] The plate was incubated for 1 hour at room temperature and the reaction mixtures were filtered through a Packard GF/C Unifilter filter plate. The filter plate was dried for 1 hour in a vacuum oven. Scintillation fluid ([…]) was added to each well, and the filter plate was counted in a Packard Topcount scintillation counter. Data was analyzed using GraphPad Prism software.
# rat aorta tissues = assay: norepinephrine-induced contractile response of rat aortic rings; assay type: cell-based; conditions: norepinephrine-induced contraction, Long Evans rat aortic rings, 2 grams tension, 37° C.; read-out: IC50 of inhibition of contractile response in aortic tissue
# Description: (§1) The contractile responses of rat prostatic tissue and rat aorta tissues were examined in the presence and absence of antagonist compounds. As an indication of the selectivity of antagonism, test compound effects on vascular smooth muscle contractility (α1b-AR and α1d-AR) were compared to the effects on prostatic smooth muscle (α1a-AR). Strips of prostatic tissue and aortic rings were obtained from Long Evans derived male rats weighing 275 grams and sacrificed by cervical dislocation. The prostate tissue was placed under 1 gram tension in a 10 ml bath containing phosphate buffered saline pH 7.4 at 32° C. and isometric tension was measured with force transducers. The aortic tissue was placed under 2 grams tension in a 10 ml bath containing phosphate buffered saline pH 7.4 at 37° C.
# rat prostatic tissue = assay: norepinephrine-induced contractile response of rat prostatic tissue strips; assay type: cell-based; conditions: norepinephrine-induced contraction, Long Evans rat prostatic strips, 1 gram tension, 32° C.; read-out: IC50 of inhibition of contractile response in prostate tissue
# Description: as §1
pIC50 (α1a-AR),pIC50 (rat aorta tissues),pIC50 (rat prostatic tissue),Structure (SMILES)
9.00,5.19,6.64,CC(C)Oc1ccccc1N1CCN(C[C@@H](O)CNC(=O)c2ccc3c(c2)C(=O)N(c2cccc(F)c2)C3=O)CC1 [Compound 9]
8.74,,,CC(C)Oc1ccccc1N1CCN(CC(O)CNC(=O)c2ccc3c(c2)C(=O)N(c2ccc([N+](=O)[O-])cc2)C3=O)CC1 (centres unmarked) [Compound 30]
9.39,5.55,6.89,CC(C)Oc1ccccc1N1CCN(CCCNC(=O)c2ccc3c(c2)C(=O)N(c2cccc(F)c2)C3=O)CC1 [Compound 6]
9.18,,,Cc1ccc(N2C(=O)c3ccc(C(=O)NCC(O)CN4CCN(c5ccccc5OC(C)C)CC4)cc3C2=O)cc1 (centres unmarked) [Compound 52]
9.34,,,"CC(C)Oc1ccccc1N1CCN(CC(O)CNC(=O)c2ccc3c(c2)C(=O)N(c2ccc(O)cc2)C3=O)CC1 (single isomer, unassigned) [Compound 35]"
7.66,,,COc1ccccc1N1CCN(CC(O)CNC(=O)c2ccc3c(c2)C(=O)N(c2cccc(F)c2)C3=O)CC1 (centres unmarked) [Compound 43]
9.96,5.48,7.40,COc1ccc(N2C(=O)c3ccc(C(=O)NCCCN4CCN(c5ccccc5OC(C)C)CC4)cc3C2=O)cc1 [Compound 45]
8.10,,,CC(C)Oc1ccccc1N1CCN(C[C@H](O)CNC(=O)c2ccc3c(c2)C(=O)N(c2cccc(F)c2)C3=O)CC1 [Compound 27]
8.15,,,COC(CNC(=O)c1ccc2c(c1)C(=O)N(c1cccc(F)c1)C2=O)CN1CCN(c2ccccc2OC(C)C)CC1 (centres unmarked) [Compound 14]
9.14,,,CC(C)Oc1ccccc1N1CCN(CC(O)CNC(=O)c2ccc3c(c2)C(=O)N(c2cccc(Cl)c2)C3=O)CC1 (centres unmarked) [Compound 54]
9.09,,,CC(C)Oc1ccccc1N1CCN(CC(O)CNC(=O)c2ccc3c(c2)C(=O)N(c2ccc(Cl)c(Cl)c2)C3=O)CC1 (centres unmarked) [Compound 56]

# Further lines, the molecule ahead of its results:
Structure (SMILES),pIC50 (α1a-AR),pIC50 (rat aorta tissues),pIC50 (rat prostatic tissue)
CC(C)Oc1ccccc1N1CCN(CCCNC(=O)c2ccc3c(c2)C(=O)N(c2ccc(O)cc2)C3=O)CC1 [Compound 47],9.70,,
Cc1ccc(N2C(=O)c3ccc(C(=O)NCCCN4CCN(c5ccccc5OC(C)C)CC4)cc3C2=O)cc1 [Compound 46],10.00,,
CC(C)Oc1ccccc1N1CCN(CCCNC(=O)c2ccc3c(c2)C(=O)N(c2ccc(N(C)C)cc2)C3=O)CC1 [Compound 44],9.74,,
CC(C)Oc1ccccc1N1CCN(CC(O)CNC(=O)c2ccc3c(c2)C(=O)N(c2ccccc2)C3=O)CC1 (centres unmarked) [Compound 51],9.05,,
CC(C)Oc1ccccc1N1CCN(CC(O)CNC(=O)c2ccc3c(c2)C(=O)N(c2ccc(N(C)C)cc2)C3=O)CC1 (centres unmarked) [Compound 28],9.10,,
CC(C)Oc1ccccc1N1CCN(CC(O)CNC(=O)c2ccc3c(c2)C(=O)N(c2cccc(C(F)(F)F)c2)C3=O)CC1 (centres unmarked) [Compound 57],9.13,,
"CC(C)Oc1ccccc1N1CCN(C[C@@H](O)CNC(=O)c2ccc3c(c2)C(=O)N(c2ccc(N(C)C)cc2)C3=O)CC1 [Compound 21, (S)-2-[4-(dimethylamino)phenyl]-2,3-dihydro-N-[2-hydroxy-3-[4-[2-(1-methylethoxy)phenyl]-1-piperazinyl]propyl]-1,3-dioxo-1H-isoindole-5-carboxamide]",9.44,4.65,6.09
CC(=O)c1ccc(N2C(=O)c3ccc(C(=O)NCC(O)CN4CCN(c5ccccc5OC(C)C)CC4)cc3C2=O)cc1 (centres unmarked) [Compound 48],9.00,,
CC(C)Oc1ccccc1N1CCN(CC(O)CNC(=O)c2ccc3c(c2)C(=O)N(c2cccnc2)C3=O)CC1 (centres unmarked) [Compound 11],8.72,,
CC(C)Oc1ccccc1N1CCN(CC(O)CNC(=O)c2ccc3c(c2)C(=O)N(c2ccc(F)cc2)C3=O)CC1 (centres unmarked) [Compound 50],8.82,,
CC(C)Oc1ccccc1N1CCN(CC(O)CNC(=O)c2ccc3c(c2)C(=O)N(c2ccc(O)cc2)C3=O)CC1 (centres unmarked) [Compound 58],9.06,,
COc1ccc(N2C(=O)c3ccc(C(=O)NCC(O)CN4CCN(c5ccccc5OC(C)C)CC4)cc3C2=O)cc1OC (centres unmarked) [Compound 38],9.03,,
CC(C)Oc1ccccc1N1CCN(CC(O)CNC(=O)c2ccc3c(c2)C(=O)N(c2cc(F)cc(F)c2)C3=O)CC1 (centres unmarked) [Compound 29],9.05,,
CC(C)Oc1ccccc1N1CCN(CC(O)CNC(=O)c2ccc3c(c2)C(=O)N(c2ccc(Cl)cc2)C3=O)CC1 (centres unmarked) [Compound 53],9.02,,
Cc1ccc(N2C(=O)c3ccc(C(=O)NCC(O)CN4CCN(c5ccccc5OC(C)C)CC4)cc3C2=O)cc1C (centres unmarked) [Compound 39],9.36,,
CC(C)Oc1ccccc1N1CCN(CC(O)CNC(=O)c2ccc3c(c2)C(=O)N(c2cccc(F)c2)C3=O)CC1 (racemic) [Compound 4],8.82,4.20,6.19
Cc1cccc(N2C(=O)c3ccc(C(=O)NCC(O)CN4CCN(c5ccccc5OC(C)C)CC4)cc3C2=O)c1 (centres unmarked) [Compound 49],9.05,,
CC(C)Oc1ccccc1N1CCN(CC(O)CNC(=O)c2ccc3c(c2)C(=O)N(c2ccc(C(C)(C)C)cc2)C3=O)CC1 (centres unmarked) [Compound 41],8.46,,
CCOc1ccccc1N1CCN(CC(O)CNC(=O)c2ccc3c(c2)C(=O)N(c2cccc(F)c2)C3=O)CC1 (centres unmarked) [Compound 42],8.37,,
COc1ccccc1N1C(=O)c2ccc(C(=O)NCC(O)CN3CCN(c4ccccc4OC(C)C)CC3)cc2C1=O (centres unmarked) [Compound 26],8.80,,
